Measured values reported in ChEMBL document CHEMBL1201862, “PubChem BioAssay data set” (2004).
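1) Cells in 96-well plates. 2) Compound, 48 h, 5 concentrations. 3) Linear interpolation between surrounding doses. 4) Unreached endpoint = highest concentration. At the GI50, growth is halved.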 Active and inactive are the calls of the source. No stated cut-off is given here; in the data, active = GI50 up to about 1.1 µM and inactive = higher.

Experiments:
Assay in all cases: NCI anticancer screen, dose series, 48 h
OVCAR-8 = tested on: OVCAR-8
LOX IMVI = tested on: LOX IMVI
UACC-62 = tested on: UACC-62
SNB-75 = tested on: SNB-75
MDA-N = tested on: MDA-N
PC-3 = tested on: PC-3
SK-MEL-2 = tested on: SK-MEL-2
IGROV-1 = tested on: IGROV-1
ACHN = tested on: ACHN
NCI-H23 = tested on: NCI-H23
NCI-H226 = tested on: NCI-H226
HL-60 = tested on: HL-60
UO-31 = tested on: UO-31
HCT-116 = tested on: HCT-116
KM12 = tested on: KM12
HT-29 = tested on: HT-29
MOLT-4 = tested on: MOLT-4
OVCAR-5 = tested on: OVCAR-5
MDA-MB-231 = tested on: MDA-MB-231
RPMI-8226 = tested on: RPMI-8226

SMILES | GI50 (OVCAR-8) | GI50 (LOX IMVI) | GI50 (UACC-62) | GI50 (SNB-75) | GI50 (MDA-N) | GI50 (PC-3) | GI50 (SK-MEL-2) | GI50 (IGROV-1) | GI50 (ACHN) | GI50 (NCI-H23) | GI50 (NCI-H226) | GI50 (HL-60) | GI50 (UO-31) | GI50 (HCT-116) | GI50 (KM12) | GI50 (HT-29) | GI50 (MOLT-4) | GI50 (OVCAR-5) | GI50 (MDA-MB-231) | GI50 (RPMI-8226)
O=C(CCCC1Cc2ccccc2C1=O)c1ccccc1 (stereo not given) | 79.6 µM (inactive) | 34.8 µM (inactive) | 69.5 µM (inactive) | 70.5 µM (inactive) | 66.2 µM (inactive) | 35.1 µM (inactive) | > 100 µM (inactive) | > 100 µM (inactive) | 98.4 µM (inactive) | 60.1 µM (inactive) | 70.1 µM (inactive) | 32.4 µM (inactive) | 47.1 µM (inactive) | 63.8 µM (inactive) | 96.4 µM (inactive) | 42.2 µM (inactive) | 33.3 µM (inactive) | > 100 µM (inactive) | > 100 µM (inactive) | 46.9 µM (inactive)
Nc1ncc2c(n1)-c1ccccc1OC2NC1CC1 (stereo not given) | > 100 µM (inactive) | > 100 µM (inactive) | > 100 µM (inactive) | > 100 µM (inactive) | > 100 µM (inactive) | > 100 µM (inactive) | > 100 µM (inactive) | > 100 µM (inactive) | > 100 µM (inactive) | > 100 µM (inactive) | > 100 µM (inactive) | > 100 µM (inactive) | > 100 µM (inactive) | > 100 µM (inactive) | > 100 µM (inactive) | > 100 µM (inactive) | > 100 µM (inactive) | > 100 µM (inactive) | > 100 µM (inactive) | > 100 µM (inactive)
C[C@]12CC/C(=N\O)C=C1CC[C@@H]1[C@@H]2CC[C@]2(C)C(=N/O)/C(=C/c3ccncc3)C[C@@H]12 | 24.6 µM (inactive) | 20 µM (inactive) | 16.4 µM (inactive) | 25.5 µM (inactive) | 21.7 µM (inactive) | 14 µM (inactive) | 15 µM (inactive) | 53.8 µM (inactive) | 18.7 µM (inactive) | 31.5 µM (inactive) | 6.37 µM (inactive) | 0.1 µM (active) | 3.62 µM (inactive) | 10 µM (inactive) | 17.3 µM (inactive) | 11.5 µM (inactive) | 18.8 µM (inactive) | 42.8 µM (inactive) | 20.8 µM (inactive) | 6.85 µM (inactive)
CC1=CCC[C@]2(C)C1=CC(=O)O[C@H]2c1ccoc1 | > 100 µM (inactive) | > 100 µM (inactive) | > 100 µM (inactive) | > 100 µM (inactive) | > 100 µM (inactive) | > 100 µM (inactive) | > 100 µM (inactive) | > 100 µM (inactive) | > 100 µM (inactive) | > 100 µM (inactive) | > 100 µM (inactive) | 49.8 µM (inactive) | 44.6 µM (inactive) | > 100 µM (inactive) | > 100 µM (inactive) | > 100 µM (inactive) | > 100 µM (inactive) | > 100 µM (inactive) | > 100 µM (inactive) | > 100 µM (inactive)
